Measured values as given in patent publication US5800809A, “Non-crosslinked acrylic polymers and non-crosslinked anion exchange resins” (priority 1992, dated 1998).

Tests used:
[1] = set-up: species or system CD-1 mouse; settings: mouse, in vivo
Method: (3) Micronucleus test on mice.
test on mice HBS-107 was given orally at a dosage of
was prepared after 24, 48 and 72 hours

[2] = rabbit, in vivo
[3] = rat, in vivo

polyacryloyloxyethyl-N,N-dimethylbenzyl ammonium salt [Example 1]
induction of micronucleus formation [1]: No induction | irritation (in words) [2]: not strong | urine volume, Na^+ and Cl^- [3]: Significant reduction
